Experimental findings from ChEMBL document CHEMBL1201862, “PubChem BioAssay data set” (2004) are described below.

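Method: 48-hour compound exposure of cells in 96-well plates, five concentrations, linear interpolation of endpoints. Here, GI50 denotes the concentration required for 50% inhibition of growth.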 Activity calls are given as the source filed them. Rule as the data show it: active = GI50 up to about 1.1 µM and inactive = higher. A value given as a limit tells only on which side of the number the result lay.

Holding throughout (assay): NCI tumour cell line growth inhibition, 48 h
For assay [1], the system named is 786-0.
Assay [2] relates to MCF7.
The test system of assay [3] is SF-539.
Assay [4] deals with RXF 393.
Assay [5] relates to RPMI-8226.
Assay [6] deals with SF-295.
Assay [7] has as its system HT-29.
Assay [8] has as its system OVCAR-3.
Assay [9] has as its system HCT-15.
Assay [10] concerns K562.
Assay [11] relates to XF498.
Assay [12] deals with MDA-MB-231.
In assay [13] the test system is PC-3.
The subject of assay [14] is Malme-3M.
Assay [15] relates to A549.
In assay [16] the test system is DU-145.
In assay [17] the test system is MDA-N.
For assay [18], the system named is SK-MEL-2.
Assay [19] concerns HOP-92.
Assay [20] deals with OVCAR-8.

`CCCCCCCCCCCCCCCC(=O)OCC1OC(OC)C(NC(=O)N(CCCl)N=O)C(O)C1O` (centres undefined): the GI50 is 2.01 µM (inactive) in [1]; 45.4 µM (inactive) in [2]; 3.32 µM (inactive) in [3]; 16.7 µM (inactive) in assay [4]; 21.3 µM (inactive) in assay [5]; 4.48 µM (inactive) in [6]. Also, the GI50 in assay [7] is 14.5 µM (inactive); in assay [8] it was 19.6 µM (inactive); in assay [9] it was 13.1 µM; in assay [10] it was 10.7 µM (inactive); in [11], 7.66 µM (inactive); in assay [12], 17.9 µM (inactive). Also, the GI50 was 15.7 µM (inactive) in assay [13]; 20.9 µM (inactive) in assay [14]; 9.68 µM (inactive) in [15]; 19.5 µM (inactive) in assay [16]; 15.1 µM (inactive) in assay [17]; 17.7 µM (inactive) in assay [18]. Also, the GI50 in assay [19] was 17.4 µM (inactive); in [20] it was 15.5 µM (inactive).
Turning to `CCCCCCCCCCCC1CC(=O)NCCCN(C)CCCCN(C)CCCN1C` (centres undefined) [BUDMUNCHIAMINE A], the GI50 in [1] was 1.55 µM (inactive); in assay [3], 1.75 µM (inactive); in assay [4] it was 1.6 µM (inactive); in assay [5], 0.828 µM (active); in assay [6] it was 1.64 µM (inactive); in assay [7] it was 1.56 µM (inactive). Further, the GI50 in assay [8] is 1.69 µM (inactive); in assay [9], 1.63 µM; in assay [10] it was 0.261 µM (active); in [11] it was 1.65 µM (inactive); in assay [14], 1.9 µM (inactive); in [15], 1.76 µM (inactive). For the same compound, the values for the GI50 in [18], in assay [19] and in [20] were 1.75 µM (inactive), 1.39 µM (inactive) and 1.89 µM (inactive), respectively.
On to `CC1=NN(C(=O)c2ccccc2O)C(=O)/C1=C/c1ccc([N+](=O)[O-])cc1`, for which the GI50 in [1] is 0.299 µM (active); in [2], 0.726 µM (active); in [3], 0.0951 µM (active); in assay [4], < 0.01 µM (active); in assay [5], 1.88 µM (inactive); in [6], 0.131 µM (active). In addition, the GI50 was 5.97 µM (inactive) in [7]; 0.172 µM (active) in [8]; 0.361 µM in [9]; 0.0434 µM (active) in assay [10]; 0.664 µM (active) in [11]; 26.9 µM (inactive) in [12]. The GI50 in assay [13] was 1.36 µM (inactive); in assay [14] it was 0.247 µM (active); in [15], 0.0931 µM (active); in assay [16] it was 0.481 µM (active); in assay [17], 0.413 µM (active); in assay [19], 0.411 µM (active). Also, the GI50 in assay [20] is 0.203 µM (active).
As to `O=C1c2c(n(Cc3ccccc3)c(=O)n2Cc2ccccc2)C(=O)N1Cc1ccccc1`, the GI50 is > 100 µM (inactive) in assay [1]; > 100 µM (inactive) in [3]; 37.9 µM (inactive) in assay [4]; 22.8 µM (inactive) in [5]; 72.3 µM (inactive) in [6]; 82.2 µM (inactive) in [7]. Further, the GI50 in assay [8] was 49.2 µM (inactive); in assay [9], 47.8 µM; in [10], 58.1 µM (inactive); in [11], 16.4 µM (inactive); in assay [14], > 100 µM (inactive); in assay [15] it was 41.9 µM (inactive). For the same compound, the GI50 in assay [18] was 46.3 µM (inactive); in assay [19] it was > 100 µM (inactive); in [20], > 100 µM (inactive).
Turning to `Cc1ccc(/C=N/NS(=O)(=O)c2ccccc2)c(C)c1`, the GI50 in assay [1], in [3], in assay [4], in assay [5], in assay [6] and in assay [7] was > 100 µM (inactive) throughout. Further, the GI50 in assay [8] was > 100 µM (inactive); in [9], above 100 µM; in [10], > 100 µM (inactive); in assay [11], > 100 µM (inactive); in assay [14] it was > 100 µM (inactive); in assay [15] it was > 100 µM (inactive). The GI50 in assay [18], in assay [19] and in [20] was > 100 µM (inactive) each time.
Regarding `CC(C)(c1ccccc1)c1ccc(Oc2ccc(C#N)c(C#N)c2)cc1`, the GI50 in assay [1] was > 10 µM (inactive); in assay [3], > 10 µM (inactive); in [4], 92.9 µM (inactive); in assay [5], 10.2 µM (inactive); in assay [6], 4.47 µM (inactive); in assay [7], > 10 µM (inactive). The GI50 in assay [8] was > 10 µM (inactive); in assay [9], above 10 µM; in [10], 15 µM (inactive); in assay [11], > 10 µM (inactive); in assay [14], > 10 µM (inactive); in assay [15], 27 µM (inactive). For the same compound, the GI50 in assay [18] was > 10 µM (inactive); in [19], 10.3 µM (inactive); in assay [20], > 10 µM (inactive).
